# Paper PMC9653606, “Synergistic Effect of DIBOA and Verbascoside from Acanthus mollis Leaf on Tyrosinase Inhibition” (International Journal of Molecular Sciences, 2022)
# Target: mushroom tyrosinase
# Experiment: L-DOPA oxidation (dopachrome, […] nm) inhibition assay with Lineweaver-Burk kinetics
# Format: biochemical
row,SMILES,IC50 [µM]
1,"C[C@@H]1O[C@@H](O[C@@H]2[C@@H](O)[C@H](OCCc3ccc(O)c(O)c3)O[C@H](CO)[C@H]2OC(=O)/C=C/c2ccc(O)c(O)c2)[C@H](O)[C@H](O)[C@H]1O [compound 8, 2-(3,4-dihydroxyphenyl)ethyl-1-O-α-L-rhamnopyranosyl-(1→3)-(4-O-Ε-caffeoyl)-β-D-glucopyranoside]",22.7 ± 2.83
2,"O=C1C(O)Oc2ccccc2N1O (centres unmarked) [compound 1, 2,4-dihydroxy-1,4-benzoxazin-3-one]",27.2 ± 3
